Where two headings read alike, the source gives them in different places.
What was measured:
[1] = Miscibility with water and lipophilic cosmetic solvents (Neutralöl, Paraffinöl); assay type: physicochemical; conditions: for Löslichkeit + Neutralöl auf: 2,5 g: 0,1 g PKR made up with Neutralöl to 2,5 g; for Löslichkeit + Neutralöl auf: 5 g: 0,1 g PKR made up with Neutralöl to 5 g; for Löslichkeit + Neutralöl auf: 10 g: 0,1 g PKR made up with Neutralöl to 10 g; for Löslichkeit + Paraffinöl auf: 5 g: 0,1 g PKR made up with Paraffinöl to 5 g; for Löslichkeit + Paraffinöl auf: 10 g: 0,1 g PKR made up with Paraffinöl to 10 g; for Löslichkeit + Wasser auf: 10 g: 0,1 g PKR made up with water to 10 g; for Löslichkeit + Wasser auf: 20 g: 0,1 g PKR made up with water to 20 g; on Löslichkeit + Neutralöl auf: 10 g: key: +: klare Lösung; -: Zweiphasengemisch; on Löslichkeit + Neutralöl auf: 2,5 g: key: +: klare Lösung; -: Zweiphasengemisch; on Löslichkeit + Neutralöl auf: 5 g: key: +: klare Lösung; -: Zweiphasengemisch
Text: Mischungen aus 40 Gew.-% Kühlreagenz (a) und jeweils 60 bzw. 50 Gew.-% Alkohol (b) wurden gemäß Beispiel 1 erzeugt bzw. mit 10 Gew.-% Wasser versetzt.
Anschließend wurde alternativ mit Wasser, Neutralöl oder Paraffinöl versetzt.

[2] = cited from earlier work
[3] = octanol/water; cited from earlier work

Compound	Löslichkeit + Neutralöl auf: 2,5 g ([1]; Lagertemperatur 8 °C)	Löslichkeit + Neutralöl auf: 2,5 g ([1]; Lagertemperatur 20 °C)	Löslichkeit + Neutralöl auf: 5 g ([1]; Lagertemperatur 8 °C)	Löslichkeit + Neutralöl auf: 5 g ([1]; Lagertemperatur 20 °C)	Löslichkeit + Neutralöl auf: 10 g ([1]; Lagertemperatur 8 °C)	Löslichkeit + Neutralöl auf: 10 g ([1]; Lagertemperatur 20 °C)	Löslichkeit + Paraffinöl auf: 5 g ([1]; Lagertemperatur 8 °C)	Löslichkeit + Paraffinöl auf: 5 g ([1]; Lagertemperatur 20 °C)	Löslichkeit + Paraffinöl auf: 10 g ([1]; Lagertemperatur 8 °C)	Löslichkeit + Paraffinöl auf: 10 g ([1]; Lagertemperatur 20 °C)	Löslichkeit + Wasser auf: 10 g ([1]; Lagertemperatur 8 °C)	Löslichkeit + Wasser auf: 10 g ([1]; Lagertemperatur 20 °C)	Löslichkeit + Wasser auf: 20 g ([1]; Lagertemperatur 8 °C)	Löslichkeit + Wasser auf: 20 g ([1]; Lagertemperatur 20 °C)	Löslichkeit in Wasser ([2]; bei 20 °C)	log Kow [3]	Löslichkeit in Wasser ([2]; water)
CNC(=O)C(C)(C(C)C)C(C)C [WS-23, 2-Isopropyl-N,2,3-trimethylbutanamid]	+	+	+	+	+	+	-	-	-	-	-	-	-	+	ca. 0,5 g/L		
CC(O)CO (stereo not shown) [1,2-Propandiol]																-0,90	
CC(C)[C@@H]1CC[C@@H](C)C[C@H]1O [L-Menthol]	+	+	+	+	+	+	+	+	+	+	-	-	-	-			0,355 g/L
